The source of these data is PubChem BioAssay (NCI).

Holding throughout (test): growth of human tumour cells (NCI), 48 h
Assay [1] relates to SR leukemia.
Assay [2] relates to DU-145 prostate.
In assay [3] the test system is SNB-19 CNS.
Assay [4] deals with UACC-257 melanoma.
Assay [5] relates to SF-539 CNS.
In assay [6] the test system is SK-MEL-28 melanoma.
For assay [7], the system named is HS 578T breast.
For assay [8], the system named is SF-295 CNS.
The subject of assay [9] is NCI-H460 lung.
Assay [10] concerns SW-620 colon.
Assay [11] relates to K-562 leukemia.
Assay [12] has as its system HCT-15 colon.
In assay [13] the test system is MCF7 breast.
Assay [14] relates to PC-3 prostate.
The subject of assay [15] is OVCAR-4 ovarian.
The subject of assay [16] is HCC-2998 colon.
For assay [17], the system named is NCI-H522 lung.

The structures appear in SMILES notation. “And” between values parts separate entries of the source, which are not always exact repeats. Equal entries are not always repeated.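 Each compound was tested at five concentrations against cells in 96-well plates for 48 hours. GI50: concentration for 50% inhibition of growth. At the TGI there is no net growth.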

Consider `CC(C)Nc1n[nH]c(=O)n1C(C)C`, for which the TGI in assay [1], in [2], in [3], in assay [4], in [5] and in [6] was over 100 µM in each case. The TGI in [7], in assay [8], in assay [9], in assay [10], in assay [11] and in assay [12] was over 100 µM in each case. Further, the TGI in assay [13] and in [14] was over 100 µM in each case.

For the molecule `CCOC(=O)C1=C(C)N(Cc2ccc(Cl)cc2Cl)C2(O)C(OC)CC(=O)C3C(=O)N(c4ccccc4)C(=O)C132` (stereo not given), the TGI in assay [2] came out at 2.75 µM; in [3] it was 11.8 µM; in assay [4], 18.2 µM; in assay [5] it was 12.7 µM; in assay [15], 8.05 µM; in [16] it was 5.29 µM. For the same molecule, the TGI in assay [6] was determined as 4.37 µM; in [7], 92.8 µM; in assay [17], 7.56 µM; in assay [8], 20.2 µM; in assay [9], 12.5 µM; in assay [10], 7.15 µM. In addition, the TGI in [11] was determined as 3.87 µM; in assay [12], 2.64 µM; in assay [13], 8.46 µM; in assay [14], 15.1 µM.

As to `COc1cccc(N2CCc3c(C)c(C#N)c4nc5ccccc5n4c32)c1`, the TGI in assay [2], in [3], in [4], in assay [5], in [15] and in [16] was over 100 µM each time. For the same molecule, the TGI in assay [6] was over 100 µM; in assay [7], 60.7 µM; in assay [17], over 100 µM; in assay [8] it was over 100 µM; in [9], over 100 µM; in assay [10], over 100 µM. Besides, the TGI in assay [11], in [12], in assay [13] and in assay [14] was over 100 µM in each case.

For the molecule `CCOc1ccccc1N=NC1C(=O)N(C(=O)CC(=O)Nc2ccccc2Cl)N=C1C` (stereo not given), the TGI in assay [1], in assay [2], in assay [5], in assay [15], in assay [16] and in assay [6] was over 100 µM throughout. Moreover, the TGI in [7] was 89 µM; in assay [17], over 100 µM; in assay [8], over 100 µM; in [9], over 100 µM; in assay [10], over 100 µM; in [12] it was over 100 µM. The TGI in [13] and in [14] was over 100 µM throughout.

Consider `CCOC(=O)c1c2ccccc2n2c(=O)n(C)nnc12`, for which the TGI in assay [1] is over 90.7 µM; in [2], over 100 µM; in assay [3], over 100 µM; in assay [4], over 100 µM; in assay [5], over 100 µM; in assay [15], over 100 µM. Moreover, the TGI in [16], in [6], in assay [7], in assay [8], in [9] and in assay [10] was over 100 µM each time. In addition, the TGI in [11], in [12], in assay [13] and in [14] was over 100 µM each time.

For `COC(=O)C1=C(C(=O)OC)C2(/N=C(\Nc3ccccc3)c3ccccc3)N(c3ccc(OC)cc3)CC(c3ccccc3)N2O1` (stereo not given), the TGI in assay [1], in assay [2], in assay [3], in assay [4], in [5] and in assay [15] was over 100 µM throughout. Moreover, the TGI in assay [6], in assay [7], in assay [17], in [8], in [9] and in [10] was over 100 µM each time. For the same molecule, the TGI in assay [11], in assay [12], in assay [13] and in assay [14] was over 100 µM throughout.

Turning to `CC(=O)OCC1OC(Sc2nc(-c3ccc(C)cc3)c(C#N)c(=O)n2C2OC(COC(C)=O)C(OC(C)=O)C(OC(C)=O)C2OC(C)=O)C(OC(C)=O)C(OC(C)=O)C1OC(C)=O` (stereo not given), the TGI in [1] is over 100 µM; in assay [2], over 100 µM; in [3] it was over 100 µM; in assay [4], over 100 µM; in [5], over 100 µM; in assay [16], > 100 µM and 33.2 µM. The TGI in [6], in assay [7], in [17], in assay [8], in assay [9] and in assay [10] was over 100 µM throughout. For the same molecule, the TGI in assay [11], in assay [12], in [13] and in assay [14] was over 100 µM in each case. In addition, the GI50 in assay [11] was over 100 µM.

Regarding `S=c1scc(-c2ccc(Cl)cc2)n1OC1CCCC1`, the TGI is over 100 µM in [2]; over 100 µM in [3]; over 100 µM in [4]; 35.5 µM in assay [5]; over 100 µM in [15]; 71.2 µM in [16]. Moreover, the TGI in assay [6] was over 100 µM; in assay [7] it was over 100 µM; in assay [17], 54.2 µM; in assay [8] it was over 100 µM; in [9], over 100 µM; in assay [10], over 100 µM. Further, the TGI in [11] was over 100 µM; in [12], over 100 µM; in assay [13], 81.6 µM; in assay [14], over 100 µM.

For the molecule `COc1ccc(C(F)(F)F)cc1NC(=O)O/N=C(/Cl)C(C)C`, the TGI amounted to 34.3 µM in [2]; 42.6 µM in [3]; 42.5 µM in assay [4]; 37 µM in [5]; 35.8 µM in [15]; 39.3 µM in assay [16]. The TGI was 48.5 µM in [6]; over 78.3 µM in assay [7]; 4.57 µM in assay [17]; over 66.3 µM in assay [8]; over 64.2 µM in [9]; over 21.4 µM in assay [10]. Besides, the TGI is 3.99 µM in [11], over 30.4 µM in assay [12], over 55.9 µM in [13] and 34.5 µM in assay [14].

In the case of `CN(C)c1ncc(-c2c[nH]c3ccccc23)nc1-c1c[nH]c2ccccc12`, the TGI in assay [1] is 10.8 µM; in assay [2], 20.9 µM; in assay [3], 14.8 µM; in assay [4], 3.89 µM; in assay [5] it was 25.3 µM; in assay [15], 17.8 µM. The TGI in assay [16] came out at 4.1 µM; in [6], 5.73 µM; in assay [7], 9.5 µM; in [8], 6.48 µM; in [9] it was 4.99 µM; in assay [10], 11.8 µM. In addition, the TGI in assay [11] turned out to be 8.48 µM; in [12], 16.4 µM; in assay [13], 12.9 µM; in assay [14], 13 µM.

Regarding `COc1cc(CSc2ccc(O)cc2)cc(O)c1O`, the TGI in assay [1] was over 100 µM; in assay [2], over 100 µM; in [3], over 100 µM; in [4], over 100 µM; in assay [5] it was 85.9 µM; in [16], over 100 µM. Also, the TGI in assay [6] is over 100 µM; in assay [7], over 100 µM; in assay [17], 38.3 µM; in [8], 51.6 µM; in assay [10], over 100 µM; in assay [11] it was over 100 µM. Also, the results for the TGI in assay [12], in assay [13] and in [14] were 57.1 µM, 33.8 µM and over 100 µM, respectively.

Take `COc1ccc(-n2c(C)nc3ccc(N=Cc4ccccc4)cc3c2=O)cc1`: the TGI in [1], in [2], in assay [3], in [4], in assay [15] and in assay [16] was over 100 µM throughout. The TGI in [6], in assay [7], in assay [17], in assay [8], in assay [9] and in assay [10] was over 100 µM each time. Besides, the TGI in [11], in [12], in assay [13] and in assay [14] was over 100 µM each time.

On to `O=C(C1=CCC2(CC1)OCCO2)N(Cc1ccccc1)c1ccccc1I`, for which the TGI in [1] is over 100 µM; in assay [2], 63.6 µM; in assay [3], 37.3 µM; in [4], 46.7 µM; in [15], 34.4 µM; in assay [16] it was 32.8 µM. The TGI in [6] was 46.2 µM; in assay [7], 22.7 µM; in assay [8] it was 51.8 µM; in assay [9], 46.4 µM; in assay [10] it was over 100 µM; in assay [11], over 100 µM. In addition, the results for the TGI in assay [12], in assay [13] and in [14] were 57.2 µM, 72.4 µM and 59.9 µM, respectively.

Take `O=C1C=CC(=O)c2c(O)c(Nc3ccc(OC(F)(F)F)cc3)c(Cl)c(O)c21`: the TGI in assay [2] was determined as 1.37 µM; in [3] it was 2.6 µM; in [4] it was 7.95 µM; in assay [5], 3.36 µM; in [15], 2.98 µM; in [16], 1.27 µM. Also, the TGI in assay [6] was 1.97 µM; in assay [7] it was 10.8 µM; in [17], 2.87 µM; in [8], 4.62 µM; in assay [9] it was 3.6 µM; in assay [10] it was 2.7 µM. In addition, the TGI in assay [11] was 4.36 µM; in assay [12], 1.44 µM; in [13], 1.8 µM; in [14] it was 9.62 µM.

Regarding `CCCCCCCCCCCCCC/C(=C/OCC[N+](C)(C)C)OC(C)=O` (tested in a mixture with another compound), the TGI came to 4.57 µM in assay [1]; 17.1 µM in assay [2]; 3.35 µM in assay [3]; 8.91 µM in assay [4]; 5.88 µM in assay [5]; 7.7 µM in assay [15]. Further, the TGI is 13.4 µM in assay [16]; 20.4 µM in assay [6]; 5.26 µM in assay [7]; 5.07 µM in assay [17]; 5.34 µM in assay [8]; 17.5 µM in assay [10]. Further, the TGI in [11] was 13.3 µM; in assay [12], 19.5 µM; in assay [13] it was 10.3 µM; in assay [14] it was 5.27 µM.

On to `O=[N+]([O-])/C(Cl)=C(\Sc1ccccc1)C(Cl)=C(Cl)Cl`, for which the TGI turned out to be 0.734 µM in [1]; 3.08 µM in assay [2]; 4.26 µM in assay [3]; 0.994 µM in assay [4]; 2.98 µM in assay [5]; 3.65 µM in assay [15]. The TGI in assay [16] amounted to 3.84 µM; in assay [6] it was 2.76 µM; in [7] it was 1.8 µM; in [17], 0.802 µM; in assay [8], 8.92 µM; in assay [9], 3.22 µM. The TGI in [12] was 1.5 µM; in assay [13] it was 1.1 µM; in [14], 4.12 µM.

For `CCOC(=O)c1c(SCC#N)n(-c2ccccc2)c(=S)n(-c2ccccc2)c1=O`, the TGI in assay [1], in assay [2], in [3], in assay [4], in assay [15] and in [6] was over 100 µM each time. Also, the TGI in assay [7], in [17], in assay [8], in assay [9], in assay [10] and in assay [11] was over 100 µM in each case. The TGI in [12], in assay [13] and in assay [14] was over 100 µM each time.
